Results as given in patent publication US10947252B2, “Inhibitors of KEAP1-Nrf2 protein-protein interaction” (Janssen Pharmaceutica NV, priority 2018, dated 2021).

system: Glo-Response ARE-luc2P HEK293 cell line; experiment: ARE luciferase reporter cell-based assay; conditions: Homo sapiens, HEK293, 24 h, average of results obtained;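 note: luciferase signal tracks Nrf2 activation of the ARE once compounds disrupt KEAP1-Nrf2 binding, read with One-Glo reagent, DMSO serving as low control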

Cc1ccc([C@H](CC(=O)O)c2ccc3c(nnn3CC3CC3)c2C)cc1CN1CC2(CC2)N(C)c2ncccc2S1(=O)=O (single isomer, unassigned) [Example 78, (*S)-3-(1-(Cyclopropylmethyl)-4-methyl-1H-benzo[d][1,2,3]triazol-5-yl)-3-(4-methyl-3-((5′-methyl-1′,1′-dioxido-5′H-spiro[cyclopropane-1,4′-pyrido[2,3-f][1,2,5]thiadiazepin]-2′(3′H)-yl)methyl)phenyl)propanoic Acid] and CCn1nnc2c(C)c([C@@H](CC(=O)O)c3ccc(C)c(CN4C[C@H]5COCCN5c5ncccc5S4(=O)=O)c3)ccc21 (single isomer, unassigned) [Example 136, (*S)-3-(3-(((*S)-5,5-Dioxido-7a,8,10,11-tetrahydro-[1,4]oxazino[3,4-d]pyrido[2,3-f][1,2,5]thiadiazepin-6(7H)-yl)methyl)-4-methylphenyl)-3-(1-ethyl-4-methyl-1H-benzo[d][1,2,3]triazol-5-yl)propanoic Acid] are within 1.5-fold of each other in EC50: 8.9 nM for the first, 8.3 nM for the second.

First: Cc1c([C@H](CC(=O)O)c2ccc(Cl)c(CN3CC4(COC4)Oc4ccccc4S3(=O)=O)c2)ccn2c(C(F)(F)F)nnc12 (single isomer, unassigned) [Example 96, (*R)-3-(4-Chloro-3-((1′,1′-dioxoidospiro[benzo[b]]oxethiazepine-4,3′-oxetan]-2(3H)-yl)methyl)phenyl)-3-(8-methyl-3-(trifluoromethyl)-[1,2,4]triazolo[4,3-a]pyridine-7-yl)propanoic Acid]
Second: Cc1c([C@@H](CC(=O)O)c2ccc(Cl)c(CN3CC4(COC4)Oc4ccccc4S3(=O)=O)c2)ccn2c(C(F)(F)F)nnc12 (single isomer, unassigned) [Example 97, (*S)-3-(4-Chloro-3-((1′,1′-dioxoidospiro[benzo[b]]oxethiazepine-4,3′-oxetan]-2(3H)-yl)methyl)phenyl)-3-(8-methyl-3-(trifluoromethyl)-[1,2,4]triazolo[4,3-a]pyridine-7-yl)propanoic Acid]
The EC50 of the first is 11-fold lower: 491 nM for the first, 5290 nM for the second.

Cc1ccc([C@H](CC(=O)O)c2ccn3c(C(F)(F)F)nnc3c2C)cc1CN1CC2(CC2)Oc2ccc(F)cc2S1(=O)=O (single isomer, unassigned) [Example 98, (*S)-3-(3-((8-Fluoro-1,1-dioxidospiro[benzo[b][1,4,5]oxathiazepin]-4,1′-cyclopropan]-2(3H)-yl)methyl)-4-methylphenyl)-3-(8-methyl-3-(trifluoromethyl)-[1,2,4]triazolo[4,3-a]pyridin-7-yl)propanoic Acid] and Cc1ccc([C@H](CC(=O)O)c2ccn3c(C(F)(F)F)nnc3c2C)cc1CN1CC2(CC2)Oc2nc(Cl)ccc2S1(=O)=O (single isomer, unassigned) [Example 100, (*S)-3-(3-((7′-Chloro-1′,1′-dioxidospiro(cyclopropane-1.4′-pyrido[2,3-b][1,4,5]oxathiazepin]-2′(3′H)-yl)methyl)-4-methylphenyl)-3-(8-methyl-3-(trifluoromethyl)-[1,2,4]triazolo[4,3-a]pyridin-7-yl)propanoic Acid] are within 1.5-fold of each other in EC50: 16 nM for the first, 13.3 nM for the second.

Compared with COCCCOc1ccc2c(n1)OC1(CC1)CN(Cc1cc([C@H](CC(=O)O)c3ccn4c(C(F)(F)F)nnc4c3C)ccc1C)S2(=O)=O (single isomer, unassigned) [Example 109, (*S)-3-(-3-((7′-((3-Methoxypropoxy)-1′,1′-dioxidospiro[cyclopropane-1,4′-pyrido[2,3-b][1,4,5]oxathiazepin]-2′(3′H)-yl)methyl)-4-methylphenyl)-3-(8-methyl-3-(trifluoromethyl)-[1,2,4[triazolo[4,3-a]pyridine-7-yl)propanoic Acid], CCCCNc1ccc2c(n1)OC1(CC1)CN(Cc1cc([C@H](CC(=O)O)c3ccn4c(C(F)(F)F)nnc4c3C)ccc1C)S2(=O)=O (single isomer, unassigned) [Example 113, (*S)-3-(3-((7′-(Butylamino)-1′,1′-dioxidospiro[cyclopropane-1,4′-pyrido[2,3-b][1,4,5]oxathiazepin]-2′(3′H)-yl)methyl)-4-methylphenyl)-3-(8-methyl-3-(trifluoromethyl)-[1,2,4[triazolo[4,3-a]pyridine-7-yl)propanoic Acid] is 3.8-fold higher in EC50: 128 nM for the first, 490 nM for the second. The first is the more potent here.

Compared with Cc1ccc([C@H](CC(=O)O)c2ccn3c(C(F)(F)F)nnc3c2C)cc1CN1CC2(CC2)Oc2nc(N(C)CCO)ccc2S1(=O)=O (single isomer, unassigned) [Example 110, (*S)-3-(-3-((7′-((3-Hydroxyethyl)(methyl)amino)-1′,1′-dioxidospiro[cyclopropane-1,4′-pyrido[2,3-b][1,4,5]oxathiazepin]-2′(3′H)-yl)methyl)-4-methylphenyl)-3-(8-methyl-3-(trifluoromethyl)-[1,2,4[triazolo[4,3-a]pyridine-7-yl)propanoic Acid], Cc1ccc([C@@H](c2ccn3c(C(F)(F)F)nnc3c2C)C(C)(C)C(=O)O)cc1CN1CC2(CCOCC2)Oc2nc(NCCCO)ccc2S1(=O)=O (single isomer, unassigned) [Example 115, (*S)-3-(3-((7′-((3-Hydroxypropyl)amino)-1′,1′-dioxido-2,3,5,6-tetrahydrospiro[pyran-4,4′-pyrido[2,3-b][1,4,5]oxathiazepin]-2′(3′H)-yl)methyl)-4-methylphenyl)-2,2-dimethyl-3-(8-methyl-3-(trifluoromethyl)-[1,2,4[triazolo[4,3-a]pyridine-7-yl)propanoic Acid] is 3.6-fold lower in EC50: 485 nM for the first, 133 nM for the second. The second is the more potent here.

Going from Cc1ccc([C@H](c2ccn3c(C(F)(F)F)nnc3c2C)C(C)(C)C(=O)O)cc1CN1CC2(CCOCC2)Oc2nc(NCCCO)ccc2S1(=O)=O (single isomer, unassigned) [Example 116, (*R)-3-(3-((7′-((3-Hydroxypropyl)amino)-1′,1′-dioxido-2,3,5,6-tetrahydrospiro[pyran-4,4′-pyrido[2,3-b][1,4,5]oxathiazepin]-2′(3′H)-yl)methyl)-4-methylphenyl)-2,2-dimethyl-3-(8-methyl-3-(trifluoromethyl)-[1,2,4[triazolo[4,3-a]pyridine-7-yl)propanoic Acid] to Cc1ccc([C@@H](c2ccn3c(C(F)(F)F)nnc3c2C)C(C)(C)C(=O)O)cc1CN1CC2(CCOCC2)Oc2nc(OCCN3CCCCC3)ccc2S1(=O)=O (single isomer, unassigned) [Example 127], the EC50 falls from 991 nM to 11.8 nM (84-fold).

Going from CCn1nnc2c(C)c([C@H](CC(=O)O)c3ccc(C)c(CN4C[C@H]5COCCN5c5ncccc5S4(=O)=O)c3)ccc21 (single isomer, unassigned) [Example 137, (*R)-3-(3-(((*S)-5,5-Dioxido-7a,8,10,11-tetrahydro-[1,4]oxazino[3,4-d]pyrido[2,3-f][1,2,5]thiadiazepin-6(7H)-yl)methyl)-4-methylphenyl)-3-(1-ethyl-4-methyl-1H-benzo[d][1,2,3]triazol-5-yl)propanoic Acid] to CCn1nnc2c(C)c([C@@H](CC(=O)O)c3ccc(C)c(CN4C[C@@H]5COCCN5c5ncccc5S4(=O)=O)c3)ccc21 (single isomer, unassigned) [Example 139, (*S)-3-(3-(((*R)-5,5-Dioxido-7a,8,10,11-tetrahydro-[1,4]oxazino[3,4-d]pyrido[2,3-f][1,2,5]thiadiazepin-6(7H)-yl)methyl)-4-methylphenyl)-3-(1-ethyl-4-methyl-1H-benzo[d][1,2,3]triazol-5-yl)propanoic Acid], the EC50 falls from 300 nM to 3.3 nM (91-fold). The second is the more potent here.
